Target: S. aureus (SAU) GyrB ATPase (Staphylococcus aureus, UniProt P0A0K8)
Test: S. aureus GyrB ATPase inhibition, ammonium molybdate/malachite green phosphate detection assay
Assay type: biochemical
Conditions: for inhibition at 12.5 µM: read-out: S. aureus (SAU) GyrB ATPase % Inhibition, compound concentration 12.5 μM
Description: Compounds were tested for inhibition of GyrB ATPase activity using an ammonium molybdate/malachite green-based phosphate detection assay (Lanzetta, P. A., L. J. Alvarez, P. S. Reinach, and O. A. Candia, 1979, 100: 95-97). Assays were performed in multiwell plates in 100 μl reactions containing: 50 mM Hepes buffer pH 7.5, 75 mM ammonium acetate, 8.0 mM magnesium chloride, 1.0 mM ethylenediaminetetraacetic acid, 5% glycerol, 2 mM 1,4-Dithio-DL-threitol, 400 nM bovine serum albumin, 5 μg/ml sheared salmon sperm DNA, 1.25 nM E. coli GyrA, 1.25 nM S. aureus GyrB, 500 μM ATP, and compound in dimethylsulfoxide. Reactions were quenched with 150 μl of ammonium molybdate/malachite green detection reagent containing 1.2 mM malachite green hydrochloride, 8.5 mM ammonium molybdate tetrahydrate, and 1 M hydrochloric acid. Plates were read in an absorbance plate reader at 650 nm and percent inhibition values were calculated using dimethylsulfoxide (2%)-containing reactions as 0% inhibition and novobiocin-containing (2 μM) reactions as 100% inhibition controls. Compound potency was based on IC50 measurements determined from reactions performed in the presence of 10 different compound concentrations.

Sequence of S. aureus (SAU) GyrB ATPase (P0A0K8 whole entry): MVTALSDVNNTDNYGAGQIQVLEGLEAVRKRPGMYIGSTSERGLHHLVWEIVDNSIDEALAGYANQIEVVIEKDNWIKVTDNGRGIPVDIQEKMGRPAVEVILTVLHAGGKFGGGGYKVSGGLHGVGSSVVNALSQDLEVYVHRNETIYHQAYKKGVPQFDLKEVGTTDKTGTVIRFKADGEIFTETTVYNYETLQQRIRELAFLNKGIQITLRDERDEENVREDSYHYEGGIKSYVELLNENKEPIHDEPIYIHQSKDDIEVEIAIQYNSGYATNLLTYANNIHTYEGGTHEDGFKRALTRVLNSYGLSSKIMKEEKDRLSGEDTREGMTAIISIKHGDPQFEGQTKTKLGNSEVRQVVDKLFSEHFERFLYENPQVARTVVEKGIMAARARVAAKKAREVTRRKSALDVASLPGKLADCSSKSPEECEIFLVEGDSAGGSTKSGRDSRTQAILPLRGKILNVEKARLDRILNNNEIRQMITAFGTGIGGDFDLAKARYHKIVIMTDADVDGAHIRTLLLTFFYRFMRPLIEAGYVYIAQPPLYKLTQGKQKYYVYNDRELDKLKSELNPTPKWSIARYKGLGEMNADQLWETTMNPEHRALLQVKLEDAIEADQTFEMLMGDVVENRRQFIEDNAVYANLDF
Sequence of S. aureus (SAU) GyrB ATPase (P0AES4 whole entry, further chain): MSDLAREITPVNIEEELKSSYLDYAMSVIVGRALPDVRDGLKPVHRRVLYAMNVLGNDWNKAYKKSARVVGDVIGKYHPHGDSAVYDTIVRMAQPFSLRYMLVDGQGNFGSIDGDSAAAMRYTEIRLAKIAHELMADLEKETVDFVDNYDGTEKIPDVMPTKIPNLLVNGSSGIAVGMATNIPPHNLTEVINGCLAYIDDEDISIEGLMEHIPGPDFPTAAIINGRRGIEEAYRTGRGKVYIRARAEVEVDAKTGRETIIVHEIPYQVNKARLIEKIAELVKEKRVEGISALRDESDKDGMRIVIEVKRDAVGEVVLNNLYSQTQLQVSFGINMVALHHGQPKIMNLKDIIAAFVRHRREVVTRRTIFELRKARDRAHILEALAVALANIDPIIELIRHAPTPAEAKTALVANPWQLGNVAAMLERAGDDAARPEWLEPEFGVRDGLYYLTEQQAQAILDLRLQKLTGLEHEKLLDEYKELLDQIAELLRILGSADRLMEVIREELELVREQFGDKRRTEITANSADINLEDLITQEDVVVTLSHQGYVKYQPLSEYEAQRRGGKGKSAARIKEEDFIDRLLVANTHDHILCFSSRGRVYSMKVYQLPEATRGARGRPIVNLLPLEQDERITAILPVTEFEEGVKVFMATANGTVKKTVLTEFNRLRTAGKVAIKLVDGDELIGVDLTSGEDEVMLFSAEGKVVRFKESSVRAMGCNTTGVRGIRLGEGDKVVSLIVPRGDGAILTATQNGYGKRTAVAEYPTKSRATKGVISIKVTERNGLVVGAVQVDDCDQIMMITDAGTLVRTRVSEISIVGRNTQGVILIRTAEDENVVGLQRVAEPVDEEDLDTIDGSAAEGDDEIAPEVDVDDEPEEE

SMILES	inhibition at 12.5 µM	S. aureus (SAU) GyrB ATPase % Inhibition (compound concentration 12.5 μM, 12.5 µM)
CCNC(=O)Nc1ccc(-c2ccc3c(c2)c(=O)c(C(=O)O)cn3CCOC)cn1 [Example 46, 6-(6-(3-Ethylureido)pyridin-3-yl)-1-(2-methoxyethyl)-4-oxo-1,4-dihydroquinoline-3-carboxylic acid]	83.4%	
CCCCn1cc(C(=O)O)c(=O)c2cc(-c3ccc(NC(=O)NCC)nc3)ccc21 [Example 47, 1-Butyl-6-(6-(3-ethylureido)pyridin-3-yl)-4-oxo-1,4-dihydroquinoline-3-carboxylic acid]	91.7%	
CCNC(=O)Nc1ccc(-c2ccc3c(c2)c(=O)c(C(=O)O)cn3CCN2CCOCC2)cn1 [Example 48, 6-(6-(3-ethylureido)pyridin-3-yl)-1-(2-morpholinoethyl)-4-oxo-1,4-dihydroquinoline-3-carboxylic acid]	101%	
CCNC(=O)Nc1ccc(-c2ccc3c(c2)c(=O)c(C(=O)O)cn3CC(F)F)cn1 [Example 49, 1-(2,2-difluoroethyl)-6-(6-(3-ethylureido)pyridin-3-yl)-4-oxo-1,4-dihydroquinoline-3-carboxylic acid]	37.8%	
CCNC(=O)Nc1ccc(-c2c[nH]c(=O)c(C(=O)O)c2)cn1 [Example 51, 5-(6-(3-ELthylureido)pyridin-3-yl)-2-oxo-1,2-dihydropyridine-3-carboxylic acid]	62.1%	
CCNC(=O)Nc1ccc(-c2nc(C(=O)N(C)C)c(C(=O)NCC)s2)cn1 [Example 54, N^5-Ethyl-2-(6-{[(ethylamino)carbonyl]amino}pyridin-3-yl)-N^4,N^4-dimethyl-1,3-thiazole-4,5-dicarboxamide]	89.8%	
CCCNC(=O)c1sc(-c2ccc(NC(=O)NCC)nc2)nc1C(=O)N(C)C [Example 55, 2-[6-(3-Ethyl-ureido)-pyridin-3-yl]-thiazole-4,5-dicarboxylic acid 4-dimethylamide 5-propylamide]	86.4%	
CCNC(=O)Nc1ccc(-c2nc(C(=O)N(C)C)c(C(=O)NC(C)C)s2)cn1 [Example 56, 2-[6-(3-Ethyl-ureido)-pyridin-3-yl]-thiazole-4,5-dicarboxylic acid 4-dimethylamide 5-isopropylamide]	84.1%	
CCNC(=O)Nc1ccc(-c2nc(C(=O)N(C)C)c(C(=O)N(C)C)s2)cn1 [Example 57, 2-[6-(3-Ethyl-ureido)-pyridin-3-yl]-thiazole-4,5-dicarboxylic acid bis-dimethylamide]	80.1%	
CCNC(=O)Nc1ccc(-c2nc(C(=O)N(C)C)c(C(=O)NC3CCCC3)s2)cn1 [Example 58, 2-[6-(3-Ethyl-ureido)-pyridin-3-yl]-thiazole-4,5-dicarboxylic acid 5-yclopentylamide 4-dimethylamide]	89.3%	
CCNC(=O)Nc1ccc(-c2nc(C(=O)NCC)c(C(=O)N(C)C)s2)cn1 [Example 61, 2-[6-(3-Ethyl-ureido)-pyridin-3-yl]-thiazole-4,5-dicarboxylic acid 5-dimethylamide 4-ethylamide]	92.8%	
CCCNC(=O)c1nc(-c2ccc(NC(=O)NCC)nc2)sc1C(=O)N(C)C [Example 64, 2-[6-(3-ethyl-ureido)-pyridin-3-yl]-thiazole-4,5-dicarboxylic acid 5-dimethylamide 4-propylamide]	92.6%	
CCNC(=O)Nc1ccc(-c2nc(C(=O)NC(C)C)c(C(=O)N(C)C)s2)cn1 [Example 67]	92.5%	
CCNC(=O)Nc1cc(-c2cncc(F)c2)c(-c2cncc(C(=O)O)c2)cn1 [Example 69, 6′-{[(Ethylamino)carbonyl]amino}-5″-fluoro-3,3′:4′,3″-terpyridine-5-carboxylic acid]	88.5%	
CCNC(=O)Nc1cc(-c2cncc(F)c2)c(-c2cncc(C(=O)NC)c2)cn1 [Example 70, 6′-{[(ethylamino)carbonyl]amino}-5″-fluoro-N-methyl-3,3′:4′,3″-terpyridine-5-carboxamide]	88.2%	
CCNC(=O)Nc1ccc(-c2nc(-c3nccn3CCOC)c(C(=O)OC)s2)cn1 [Example 71, Methyl 2-(6-{[(ethylamino)carbonyl]amino}pyridin-3-yl)-4-[1-(2-methoxyethyl)-1H-imidazol-2-yl]-1,3-thiazole-5-carboxylate]	93%	
CCNC(=O)Nc1ccc(-c2nc(-c3ncnn3C)c(C(=O)OC)s2)cn1 [Example 72, Methyl 2-(6-{[(ethylamino)carbonyl]amino}pyridin-3-yl)-4-(1-methyl-1H-1,2,4-triazol-5-yl)-1,3-thiazole-5-carboxylate]	80.3%	
CCNC(=O)Nc1ccc(-c2nc(C(=O)N[C@@H](C)COC)c(C(=O)OCC)s2)cn1 [Example 74, Ethyl 2-(6-{[(ethylamino)carbonyl]amino}pyridin-3-yl)-4-({[(1S)-2-methoxy-1-methylethyl]amino}carbonyl)-1,3-thiazole-5-carboxylate]	0.95%	
CCNC(=O)Nc1ccc(-c2nc(-c3nccn3C)c(C(=O)OC)s2)cn1 [Example 75, Methyl 2-(6-{[(ethylamino)carbonyl]amino}pyridin-3-yl)-4-(1-methyl-1H-imidazol-2-yl)-1,3-thiazole-5-carboxylate]	93.5%	
CCNC(=O)Nc1ccc(-c2nc(C(=O)NC(C)(C)C)c(C(=O)OCC)s2)cn1 [Example 76, Ethyl 4-[(tert-butylamino)carbonyl]-2-(6-{[(ethylamino)carbonyl]amino}pyridin-3-yl)-1,3-thiazole-5-carboxylate]	88.2%	
CCNC(=O)Nc1cc(-c2ccccc2)c(-c2cncc(C(=O)OCC)c2)cn1 [Example 77, Ethyl 6′-{[(ethylamino)carbonyl]amino}-4′-phenyl-3,3′-bipyridine-5-carboxylate]	101%	
CCNC(=O)Nc1cc(-c2nc(C(F)(F)F)cs2)c(-c2cncc(C(=O)OCC)c2)cn1 [Example 83, Ethyl 6′-{[(ethylamino)carbonyl]amino}-4′-[4-(trifluoromethyl)-1,3-thiazol-2-yl]-3,3′-bipyridine-5-carboxylate]	86.9%	
CCNC(=O)Nc1cc(-c2cccnc2)c(-c2cncc(C(=O)OCC)c2)cn1 [Example 85, Ethyl 6′-{[(ethylamino)carbonyl]amino}-3,3′:4′,3″-terpyridine-5-carboxylate]	94.9%	
CCNC(=O)Nc1cc(-c2ccc(F)nc2)c(-c2cncc(C(=O)OCC)c2)cn1 [Example 86, Ethyl 6′-{[(ethylamino)carbonyl]amino}-6″-fluoro-3,3′:4′,3″-terpyridine-5-carboxylate]	99.9%	
CCNC(=O)Nc1ccc(-c2nc(-c3nccn3CCOC)c(C(=O)O)s2)cn1 [Example 89, 2-(6-{[(ethylamino)carbonyl]amino}pyridin-3-yl)-4-[1-(2-methoxyethyl)-1H-imidazol-2-yl]-1,3-thiazole-5-carboxylic acid]	86.1%	
CCNC(=O)Nc1ccc(-c2nc(-c3ncnn3C)c(C(=O)O)s2)cn1 [Example 90, 2-(6-{[(Ethylamino)carbonyl]amino}pyridin-3-yl)-4-(1-methyl-1H-1,2,4-triazol-5-yl)-1,3-thiazole-5-carboxylic acid]		19.71%
CCNC(=O)Nc1ccc(-c2nc(C(=O)NCCOC)c(C(=O)O)s2)cn1 [Example 91, 2-(6-{[(Ethylamino)carbonyl]amino}pyridin-3-yl)-4-{[(2-methoxyethyl)amino]carbonyl}-1,3-thiazole-5-carboxylic acid]	101%	

— patent US7674801B2 (AstraZeneca AB, priority 2006, dated 2010)
